According to ChEMBL document CHEMBL2424537, “Design, synthesis, biological evaluation and docking study of 5-oxo-4,5-dihydropyrano[3,2-c]chromene derivatives as acetylcholinesterase and butyrylcholinesterase inhibitors” (Eur J Med Chem, 2013):

Experiments:
[1] = Selectivity ratio of IC50 for equine serum BChE to IC50 for electric eel AChE
Cholinesterase = Cholinesterase (Equus caballus, UniProt P81908); assay: Inhibition of equine serum BChE using butyrylthiocholine iodide as substrate after 2 mins by Ellman's method
Cholinesterase, sequence (P81908 whole entry): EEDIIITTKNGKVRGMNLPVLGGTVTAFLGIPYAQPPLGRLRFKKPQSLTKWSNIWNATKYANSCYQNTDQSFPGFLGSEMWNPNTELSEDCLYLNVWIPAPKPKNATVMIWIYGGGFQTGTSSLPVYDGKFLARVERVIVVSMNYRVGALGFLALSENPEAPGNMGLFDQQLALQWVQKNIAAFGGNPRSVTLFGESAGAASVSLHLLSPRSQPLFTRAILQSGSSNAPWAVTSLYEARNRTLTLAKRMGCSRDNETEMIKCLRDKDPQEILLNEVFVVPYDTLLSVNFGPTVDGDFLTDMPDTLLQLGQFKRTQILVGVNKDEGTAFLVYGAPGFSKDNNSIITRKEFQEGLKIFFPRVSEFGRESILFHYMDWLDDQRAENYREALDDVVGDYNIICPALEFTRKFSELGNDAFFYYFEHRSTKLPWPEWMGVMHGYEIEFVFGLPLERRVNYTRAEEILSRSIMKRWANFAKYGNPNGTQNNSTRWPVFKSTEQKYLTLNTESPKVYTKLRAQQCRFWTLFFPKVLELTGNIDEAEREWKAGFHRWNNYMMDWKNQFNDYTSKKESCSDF

Acetylcholinesterase = Acetylcholinesterase (Electrophorus electricus, UniProt O42275)
Acetylcholinesterase, sequence (O42275 whole entry): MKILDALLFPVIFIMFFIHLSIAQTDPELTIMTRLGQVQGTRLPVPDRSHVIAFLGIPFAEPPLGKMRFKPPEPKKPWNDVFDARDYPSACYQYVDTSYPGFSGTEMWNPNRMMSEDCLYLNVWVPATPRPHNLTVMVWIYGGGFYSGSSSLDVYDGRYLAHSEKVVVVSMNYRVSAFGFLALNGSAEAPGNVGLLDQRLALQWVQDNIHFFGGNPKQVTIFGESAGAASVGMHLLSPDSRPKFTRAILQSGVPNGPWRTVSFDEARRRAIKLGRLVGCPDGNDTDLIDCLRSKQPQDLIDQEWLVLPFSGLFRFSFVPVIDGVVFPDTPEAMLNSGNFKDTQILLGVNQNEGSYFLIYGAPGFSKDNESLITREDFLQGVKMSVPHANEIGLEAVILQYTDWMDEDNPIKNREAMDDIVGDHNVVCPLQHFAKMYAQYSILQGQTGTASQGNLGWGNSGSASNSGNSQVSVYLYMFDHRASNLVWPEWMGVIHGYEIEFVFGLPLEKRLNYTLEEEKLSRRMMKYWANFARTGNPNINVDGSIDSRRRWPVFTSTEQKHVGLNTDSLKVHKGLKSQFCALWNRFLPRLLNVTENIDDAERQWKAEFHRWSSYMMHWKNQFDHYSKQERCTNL
Description: Inhibition of electric eel AChE using acetylthiocholine iodide as substrate after 2 mins by Ellman's method

Structure (SMILES) | Ratio IC50 [1] | IC50 (Cholinesterase) [nM] | IC50 (Acetylcholinesterase) [nM]
N#CC1=C(N)Oc2c(c(=O)oc3ccccc23)C1c1cc[n+](Cc2cccc(F)c2)cc1 (stereo not given) | > 17.8 | > 50000 | 2800
Cc1cccc(C[n+]2ccc(C3C(C#N)=C(N)Oc4c3c(=O)oc3ccccc43)cc2)c1 (stereo not given) | 2.6 | 5500 | 1900
N#CC1=C(N)Oc2c(c(=O)oc3ccccc23)C1c1ccc[n+](Cc2cccc(F)c2)c1 (stereo not given) | > 25 | > 50000 | 2000
Cc1cccc(C[n+]2cccc(C3C(C#N)=C(N)Oc4c3c(=O)oc3ccccc43)c2)c1 (stereo not given) | 18.1 | 14300 | 790
N#CC1=C(N)Oc2c(c(=O)oc3ccccc23)C1c1ccc[n+](Cc2ccccc2Cl)c1 (stereo not given) | 11.2 | 11200 | 1000
N#CC1=C(N)Oc2c(c(=O)oc3ccccc23)C1c1ccc[n+](Cc2ccc(F)cc2)c1 (stereo not given) | 1 | 2170 | 2170
N#CC1=C(N)Oc2c(c(=O)oc3ccccc23)C1c1ccc[n+](Cc2ccccc2F)c1 (stereo not given) | 22.8 | 41000 | 1800
N#CC1=C(N)Oc2c(c(=O)oc3ccccc23)C1c1cc[n+](Cc2ccccc2Cl)cc1 (stereo not given) | 3.2 | 4800 | 1500
N#CC1=C(N)Oc2c(c(=O)oc3ccccc23)C1c1ccc[n+](Cc2cccc(Cl)c2)c1 (stereo not given) | 5.2 | 38400 | 7400
N#CC1=C(N)Oc2c(c(=O)oc3ccccc23)C1c1cc[n+](Cc2cccc(Cl)c2)cc1 (stereo not given) | 45.4 | 21800 | 480
N#CC1=C(N)Oc2c(c(=O)oc3ccccc23)C1c1cc[n+](Cc2ccccc2F)cc1 (stereo not given) | 12.4 | 36000 | 2900
N#CC1=C(N)Oc2c(c(=O)oc3ccccc23)C1c1cc[n+](Cc2ccc(Cl)cc2Cl)cc1 (stereo not given) | 0.68 | 566 | 831
N#CC1=C(N)Oc2c(c(=O)oc3ccccc23)C1c1cc[n+](Cc2ccc(Cl)c(Cl)c2)cc1 (stereo not given) | 28.9 | 1270 | 44
N#CC1=C(N)Oc2c(c(=O)oc3ccccc23)C1c1cc[n+](Cc2ccc(F)cc2)cc1 (stereo not given) | 48.4 | 1840 | 38
Cc1ccccc1C[n+]1ccc(C2C(C#N)=C(N)Oc3c2c(=O)oc2ccccc32)cc1 (stereo not given) | 4.8 | 17800 | 3700
